In data set [1] the test system is HeLa cells. In words: Toxicity of saponin alone, cell viability (MTS). To be noted: for toxicity, comparison in words: HeLa and A431 cells, FIG. 4; for IC50: Homo sapiens, HeLa cells, saponin alone. Type of data set: cell-based. As for the experimental part: Next, toxicity was determined. […] SO1861-EMCH (blocked): the maleimide functional group is conjugated with mercapto-ethanol.

The subject of data set [2] is A431 cells. In words: Toxicity of saponin alone, cell viability (MTS). The settings on record: Homo sapiens, A-431. It counts as cell-based.
Experimental: Cell viability was determined by an MTS-assay, performed according to the manufacturer's instruction (CellTiter 96® AQueous One Solution Cell Proliferation Assay, Promega). Briefly, the MTS solution was diluted 20× in DMEM without phenol red (PAN-Biotech GmbH) supplemented with 10% FBS (PAN-Biotech GmbH). The cells were washed once with 200 μL PBS per well, after which 100 μL diluted MTS solution was added per well. The plate was incubated for approximately 20-30 minutes at 37° C. Subsequently, the optical density at 492 nm was measured on a Thermo Scientific Multiskan FC plate reader (Thermo Scientific). For quantification the background signal of ‘medium only’ wells was subtracted from all other wells, before the ratio of untreated/treated cells was calculated, by dividing the background corrected signal of untreated wells over the background corrected signal of the treated wells.
The test system of a further data set is Human Red blood cells. In words: Hemolysis assay. The settings on record: for hemolytic activity, comparison in words: fresh Human Red blood cells, FIG. 5. It counts as cell-based.
Data set [3] deals with HeLa cells. In words: Endosomal escape enhancing activity: saponin titrated with fixed non-effective toxin conjugate, cell killing (MTS).
Experimental: (§1) Cell viability was determined by an MTS-assay, performed according to the manufacturer's instruction (CellTiter 96® AQueous One Solution Cell Proliferation Assay, Promega). Briefly, the MTS solution was diluted 20× in DMEM without phenol red (PAN-Biotech GmbH) supplemented with 10% FBS (PAN-Biotech GmbH). The cells were washed once with 200 μL PBS per well, after which 100 μL diluted MTS solution was added per well. The plate was incubated for approximately 20-30 minutes at 37° C. […] For quantification the background signal of ‘medium only’ wells was subtracted from all other wells, before the ratio of untreated/treated cells was calculated, by dividing the background corrected signal of untreated wells over the background corrected signal of the treated wells.
The test system of data set [4] is A431 cells. The description is as above.
Experimental: as §1
The mark [5] stands for this setting: Homo sapiens, HeLa, read-out: IC50 nM (Activity; +5 pM EGFdianthin).
[6] abbreviates: Homo sapiens, A-431, read-out: IC50 nM (Activity; +5 pM EGFdianthin).

Experimental for Human Red blood cells: Red blood cells (RBCs) were isolated from a buffy coat using a Ficoll gradient. The obtained RBC pellet (→4-5 ml) was washed 2× with 50 ml DPBS (without Ca^2+/Mg^2+, PAN-Biotech GmbH). Cells were pelleted by centrifugation for 10 min, 800×g at RT. RBC were counted and resuspended at 500,000,000 c/ml in DPBS (without Ca^2+/Mg^2+), based on total cell count. […] For positive lysis control a 0.02% Triton-X100 solution was prepared in DPBS^+/+. Of all compound solutions 135 μl was dispensed/well in a 96 well V-bottom plate. To this 15 μl RBC suspension was added and mixed shortly (10 sec-600 rpm). The plate was incubated 30 min at RT, with gentle agitation. Afterwards the plate was spun for 10 min at 800×g to pellet the RBC and 100-120 μl supernatant was transferred to a standard 96 wp. Subsequently, the OD at 405 nm was measured on a Thermo Scientific Multiskan FC plate reader (Thermo Scientific). For quantification the background signal of ‘DPBS^+/+ only’ wells was subtracted from all other wells before the percentage of hemolysis was calculated in comparison to 0.02% Triton-X100, by dividing the background corrected signal of treated wells over the background corrected signal of the 0.02% Triton-X100 wells (×100).

`CC(=O)OC1C(C)OC(OC2C(C)OC(OC(=O)[C@]34CCC(C)(C)CC3C3=CCC5[C@@]6(C)CC[C@H](OC7OC(C(=O)O)C(O)C(OC8OCC(O)C(O)C8O)C7OC7OC(CO)C(O)C(O)C7O)CC6[C@@](C)(/C=N/NC(=O)CCOCCOCCOCCOCCN6N=NC7c8ccccc8CN(C(=O)CCC(=O)ON8C(=O)CCC8=O)c8ccccc8C76)C[C@@]5(C)[C@]3(C)C[C@H]4O)C(OC3OC(C)C(OC4OCC(O)C(OC5OC(CO)C(O)C(O)C5O)C4O)C(O)C3O)C2O)C(O)C1OC1OCC(O)C(O)C1O` (stereo partly drawn): the “toxicity, comparison in words” value with HeLa cells [1] is on record as “comparable with the toxicity observed with SO1861-EMCH”. For the same compound, the concentration for half-maximal inhibition (IC50) – broadly, the point on the concentration scale where inhibition reaches its midpoint – with HeLa cells [1] is over 100 µM; in the data set with A431 cells [2], over 30 µM; with Human Red blood cells (Homo sapiens, Erythrocyte, red blood cells, Table 3), over 1000 µM; in the data set on HeLa cells [3] (setting [5]), 4000 nM; with HeLa cells [3] (read-out: IC50 (activity; +10 pM Cetuximab-saporin), HeLa cells, +10 pM Cetuximab-saporin), 2000 nM; with HeLa cells [3] (read-out: IC50 (activity; +50 pM Trastuzumab-saporin), HeLa cells, +50 pM Trastuzumab-saporin), 3000 nM. Moreover, the half-maximal inhibitory concentration (IC50) came to 3000 nM with A431 cells [4] (setting [6]) and 2000 nM with A431 cells [4] (read-out: IC50 (activity; +10 pM Cetuximab-saporin), A431 cells, +10 pM Cetuximab-saporin). Moreover, the “hemolytic activity, comparison in words” value with Human Red blood cells is “comparable hemolytic activity”.
As for `CC(=O)OC1C(C)OC(OC2C(C)OC(OC(=O)[C@]34CCC(C)(C)CC3C3=CCC5[C@@]6(C)CC[C@H](OC7OC(C(=O)O)C(O)C(OC8OCC(O)C(O)C8O)C7OC7OC(CO)C(O)C(O)C7O)[C@@](C)(C=O)C6CC[C@@]5(C)[C@]3(C)C[C@H]4O)C(OC3OC(C)C(OC4OCC(O)C(OC5OC(CO)C(O)C(O)C5O)C4O)C(O)C3O)C2O)C(O)C1OC1OCC(O)C(O)C1O` (stereo partly drawn) [SO1861, reference compound], the “toxicity, comparison in words” value in the data set on HeLa cells [1] is recorded as “strongest toxicity”. Also, the IC50 in the data set on HeLa cells [1] was determined as 9 µM; in the data set with HeLa cells [3] (setting [5]), 500 nM; in the data set on A431 cells [4] (setting [6]) it was 300 nM. Moreover, the “endosomal escape enhancing activity, comparison in words” value in the data set with HeLa cells [3] (HeLa and A431 cells, with EGFdianthin, Cetuximab-saporin or Trastuzumab-saporin, FIG. 1-3) is “strongest activity”.
For `CC(=O)OC1C(C)OC(OC2C(C)OC(OC(=O)[C@]34CCC(C)(C)CC3C3=CCC5[C@@]6(C)CC[C@H](OC7OC(C(=O)O)C(O)C(OC8OCC(O)C(O)C8O)C7OC7OC(CO)C(O)C(O)C7O)[C@@](C)(/C=N/NC(=O)CCCCCN7C(=O)C=CC7=O)C6CC[C@@]5(C)[C@]3(C)C[C@H]4O)C(OC3OC(C)C(OC4OCC(O)C(OC5OC(CO)C(O)C(O)C5O)C4O)C(O)C3O)C2O)C(O)C1OC1OCC(O)C(O)C1O` (stereo partly drawn) [SO1861-EMCH, reference compound], the concentration for half-maximal inhibition (IC50) in the data set with A431 cells [2] was over 30 µM; with HeLa cells [3] (setting [5]), 4000 nM. Further, in the data set on Human Red blood cells, the “hemolytic activity, comparison in words” value was “comparable hemolytic activity”.

(Values after patent US20240115726A1, “HYDRAZONE-BASED SAPONIN DERIVATIVES” (priority 2020, published 2024).)
